Assay results as given in patent US9458104B2 (priority 2012, dated 2016).

Columns and labels:
[1] = biological target: T1, RORγ ligand binding domain (LBD) (Homo sapiens, UniProt P51449); test: TR-FRET Activity Assay (ligand sensing assay, RORγ-LBD / coactivator peptide interaction); type: biochemical
T1 construct: made in house; host or cells: E. coli BL-21 (BL3), vector pDEST15
T1 sequence (P51449 269-508 limits assumed): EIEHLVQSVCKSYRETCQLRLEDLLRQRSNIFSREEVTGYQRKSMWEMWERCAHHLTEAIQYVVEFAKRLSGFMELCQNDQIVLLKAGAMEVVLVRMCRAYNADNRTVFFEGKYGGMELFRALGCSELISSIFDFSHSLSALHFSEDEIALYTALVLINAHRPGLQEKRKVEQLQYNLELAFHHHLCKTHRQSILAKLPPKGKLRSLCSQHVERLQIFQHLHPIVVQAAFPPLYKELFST
Excerpt: This method measures the ability of putative ligands to modulate the interaction between the purified bacterial expressed RORγ ligand binding domain (LBD) and synthetic N-terminally biotinylated peptides which are derived from nuclear receptor coactivator proteins such as but not limited to SRC1 (NcoA1), SRC2 (NcoA2, TIF2), SRC3 (NcoA3), PGC1α, PGC1β, CBP, GRIP1, TRAP220, RIP140.
The ligand-binding domain (LBD) of RORγ was expressed as fusion protein with GST in […] cells using the vector pDEST15. Cells were lysed by lysozyme-treatment and sonication, and the fusion proteins purified over glutathione sepharose (Pharmacia) according to the manufacturers instructions. For screening of compounds for their influence on the RORγ-peptide interaction, the LANCE technology (Perkin Elmer) was applied. This method relies on the binding dependent energy transfer from a donor to an acceptor fluorophor attached to the binding partner of interest. For ease of handling and reduction of background from compound fluorescence LANCE technology makes use of generic fluorophore labels and time resolved detection assays were done in a final volume of 25 μL in a 384 well plate, in a Tris-based buffer system (20 mM Tris-HCl pH6.8; 60 mM KCl, 1 mM DTT; 5 mM MgCl2; 35 ng/μL BSA), containing 20-60 ng/well recombinantly expressed RORγ-LBD fused to GST, 200-600 nM N-terminally biotinylated peptide, 200 ng/well Streptavidin-xIAPC conjugate (Prozyme) and 6-10 ng/well Eu W1024-antiGST (Perkin Elmer). DMSO content of the samples was kept at 1%.
After generation of the Tris-based buffer system, the potentially RORγ modulating ligands were diluted. […] The LANCE signal was detected by a Perkin Elmer EnVision™ Multilabel Counter. The results were visualized by plotting the ratio between the emitted light at 665 nm and 615 nm. […] Ligands that promote the complex formation induce a concentration-dependent increase in time-resolved fluorescent signal.
To assess the antagonistic potential of the compounds, IC50 values were determined using a Ligand Sensing Assay based on Time-resolved Fluorescence Energy Transfer (TR-FRET) as described above. The normalised TR-FRET assay values, using the following equation: 1000*665 nm measurement value/615 nm measurement value, were transferred to the program GraphPad Prism to generate graphs and dose response curves using the following equation: […]
This is identical to the “four parameter logistic equation”. The IC50 values are calculated using this equation. […] Is is understood that the data illustrated below may have reasonable variation depending on the specific conditions and procedures used by the person conducting the test.

RORγ = biological target: T2, RORγ (UniProt P51449); type: cell-based; settings: 293T cells, 16 h; for pIC50 (FF): firefly (FF) luciferase; for pIC50 (REN): renilla normalised (RENnorm) luciferase
T2 construct: hRORg-LBD|aa259-518|NP_005051.2; hRORgt|aa1-497|NP_001001523 (RORg, t isoform, 497aa); mRORg-LBD|aa264-516|NP_035411
T2 sequence (P51449 1-518): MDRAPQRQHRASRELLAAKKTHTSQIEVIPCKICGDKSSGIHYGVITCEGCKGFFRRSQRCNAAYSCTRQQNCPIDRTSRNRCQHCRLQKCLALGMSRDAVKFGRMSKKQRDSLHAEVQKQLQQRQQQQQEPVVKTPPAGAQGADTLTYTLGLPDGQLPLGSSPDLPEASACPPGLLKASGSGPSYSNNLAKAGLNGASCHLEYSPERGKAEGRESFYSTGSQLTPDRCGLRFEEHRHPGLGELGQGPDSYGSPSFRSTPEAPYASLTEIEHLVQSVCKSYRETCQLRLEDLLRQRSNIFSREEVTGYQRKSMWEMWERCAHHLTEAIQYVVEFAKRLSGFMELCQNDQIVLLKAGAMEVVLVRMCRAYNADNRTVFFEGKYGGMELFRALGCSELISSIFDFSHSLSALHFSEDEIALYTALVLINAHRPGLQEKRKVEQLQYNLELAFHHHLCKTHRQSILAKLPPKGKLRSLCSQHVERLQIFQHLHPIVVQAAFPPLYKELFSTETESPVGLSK
Experimental: Determination of a ligand mediated Gal4 promoter driven transactivation to quantify ligand binding to RORγ was performed as follows: DNA encoding three different RORγ. protein fragments was cloned into vector pCMV-BD (Stratagene). Expression was under control of a CMV promoter and as fusion to the DNA-binding domain of the yeast protein GAL4. Other vectors used were pFR-Luc (Stratagene) as regulated reporter plasmid. pFR-Luc contains a synthetic promoter with five tandem repeats of the yeast GAL4 binding sites that control expression of the Photinus pyralis (American firefly) luciferase gene. In order to improve experimental accuracy the plasmid pRL-CMV was cotransfected. pRL-CMV contains the constitutive CMV promoter, controlling the expression of the Renilla reniformis luciferase.
All Gal4 reporter gene assays were done in 293T cells (DSMZ (German Collection of Microorganisms and Cell Cultures), Braunschweig, Germany, ACC635) grown in Minimum Essential Medium (MEM) with Phenol Red. The medium is supplemented with 10% fetal bovine serum, 0.1 mM nonessential amino acids, 1 mM sodium pyruvate, 1% Glutamax and 100 units Penicilin/[…] per mL at 37° C. in 5% CO2.
For the assay, […] were plated per well in 96 well plates in 100 μL per well, incubated over night at 37° C. in 5% CO2. The following day, medium was discarded and the cells were transiently transfected using 20 μL per well of a OptiMEM—PEI-based transfection-reagent (Sigma-Aldrich, 408727) including the three plasmids described above. About 4 h after addition of the transfection solution, fresh Minimal Essential Medium (MEM, same composition as used for plating cells, but without serum) was added. Then compound stocks, prediluted in MEM (same composition as used for plating cells) were added (final vehicle concentration not exceeding 0.1%).
All experiments were done at least in triplicates.
It is understood that the data illustrated below may have reasonable variation depending on the specific conditions and procedures used by the person conducting the test.

Row | SMILES | IC50 [1] [µM] | pIC50 (FF) (RORγ) | pIC50 (REN) (RORγ)
1 | CC(C)(C)NS(=O)(=O)c1ccc(-n2nc(C(=O)NC3CCOCC3)nc2CC2CCCCC2)cc1C(C)(C)C [Example 318/1] | 2.51 | 6.2 | 6.2
2 | Cn1c(C(=O)O)cc(-c2ccc(S(=O)(=O)NC(C)(C)C)c3ccccc23)c1CC1CCCCC1 [Example 317, 4-(4-(N-(tert-Butyl)sulfamoyl)naphthalen-1-yl)-5-(cyclohexylmethyl)-1-methyl-1H-pyrrole-2-carboxylic acid] | 1.26 | 6.9 | 6.9
3 | Cn1c(C(=O)NCCC(C)(C)C(=O)O)cc(-c2ccc(S(=O)(=O)NC(C)(C)C)c(C(C)(C)C)c2)c1CC1CCCCC1 [Example 8/1] | 2 | 7.0 | 7.0
4 | Cc1c(C(=O)N[C@H]2C[C@H](C(=O)O)C2)cn(-c2cc(C(C)(C)C)cc(C3(C)CC3)c2)c1C(=O)C1CCCCC1 [Example 6, (trans)-3-(1-(3-(tert-Butyl)-5-(1-methylcyclopropyl)phenyl)-5-(cyclohexanecarbonyl)-4-methyl-1H-pyrrole-3-carboxamido)cyclobutanecarboxylic acid] | 0.501 | 7.9 | 8.0
5 | CC(C)(O)c1cc(-c2cc(C(=O)N[C@H]3C[C@H](C(=O)O)C3)[nH]c2CC2CCCCC2)cc(C2(C)CC2)c1 [Example 17, trans-3-(5-(Cyclohexylmethyl)-4-(3-(2-hydroxypropan-2-yl)-5-(1-methylcyclopropyl)phenyl)-1H-pyrrole-2-carboxamido)cyclobutanecarboxylic acid] | 1.26 | 6.4 | 6.3
6 | CC(C)(C)NS(=O)(=O)c1ccc(-c2cc(C(=O)NC3CCOCC3)nn2CC2CCCCC2)cc1C(F)(F)F [100/5] | 0.501 | 7.1 | 7.2
7 | CC(C)(C)NS(=O)(=O)c1ccc(-n2nc(C(=O)N[C@H]3C[C@H](C(=O)O)C3)c(Cl)c2CC2CCCCC2)c2ccccc12 [Example 114, (trans)-3-(1-(4-(N-(tert-Butyl)sulfamoyl)naphthalen-1-yl)-4-chloro-5-(cyclohexyl-methyl)-1H-pyrazole-3-carboxamido)cyclobutanecarboxylic acid] |  | nt/6.8/6.8 | nt/6.8/6.8
8 | Cn1c(C(=O)NCC(C)(C)O)cc(-c2ccc(S(=O)(=O)NC(C)(C)C)c3ccccc23)c1C(=O)C1CCCCC1 [26/3] |  | 7.5 | 7.8
9 | Cn1c(C(=O)NCC(C)(C)O)cc(-c2cc(C(C)(C)C)cc(C3(C)CC3)c2)c1C(=O)C1CCCCC1 [Example 26/1] |  | 7.8 | 7.9
10 | CC(C)(C)c1cc(-n2nc(C(=O)N[C@H]3C[C@H](C(=O)O)C3)cc2OC2CCCCC2)cc(C2(C)CC2)c1 [Example 110, trans-3-(1-(3-(tert-Butyl)-5-(1-methylcyclopropyl)phenyl)-5-(cyclohexyloxy)-1H-pyrazole-3-carboxamido)cyclobutanecarboxylic acid] |  | nt/6.5/6.5 | nt/6.5/6.5
11 | CC(C)(C)c1cc(-n2nc(C(=O)N[C@H]3C[C@H](C(=O)O)C3)c(Cl)c2OC2CCCCC2)cc(C2(C)CC2)c1 [Example 111, trans-3-(1-(3-(tert-Butyl)-5-(1-methylcyclopropyl)phenyl)-4-chloro-5-(cyclohexyloxy)-1H-pyrazole-3-carboxamido)cyclobutanecarboxylic acid] |  | 7.3 | 7.5
12 | Cc1c(C(=O)NC2CCS(=O)(=O)CC2)nc(-c2ccc(S(=O)(=O)NC(C)(C)C)c3ccccc23)n1CC1CCCCC1 [Example 320, 2-(4-(N-(tert-Butyl)sulfamoyl)naphthalen-1-yl)-1-(cyclohexylmethyl)-N-(1,1-dioxidotetrahydro-2H-thiopyran-4-yl)-5-methyl-1H-imidazole-4-carboxamide] |  | 5.9 | 6.0
13 | Cn1c(C(=O)N[C@H]2C[C@H](C(=O)O)C2)cc(-c2ccc(S(=O)(=O)NC(C)(C)C)c3ccccc23)c1C(=O)C1CCCCC1 [26/2] |  | 7.0 | 7.2
14 | Cn1c(C(=O)NC2CCS(=O)(=O)CC2)cc(-c2ccc(S(=O)(=O)NC(C)(C)C)c3ccccc23)c1C(=O)C1CCCCC1 [26/4] |  | 7.7 | 7.8
15 | CC(C)(C)NS(=O)(=O)c1ccc(-c2c(Cl)c(C(=O)NC34CCC(C(=O)O)(CC3)CC4)nn2CC2CCCCC2)c(Cl)c1Cl [Example 113, 4-(5-(4-(N-(tert-Butyl)sulfamoyl)-2,3-dichlorophenyl)-4-chloro-1-(cyclohexylmethyl)-1H-pyrazole-3-carboxamido)bicyclo[2.2.2]octane-1-carboxylic acid] |  | 7.5 | 7.6
16 | CC(C)(C)c1cc(-n2nc(C(=O)NC3CCOCC3)c(Cl)c2OC2CCCCC2)cc(C2(C)CC2)c1 [Example 111/1] |  | nt/6.6/6.6 | nt/6.6/6.6
17 | CC(C)(C)NS(=O)(=O)c1ccc(-n2nc(C(=O)NC3CCS(=O)(=O)CC3)c(Cl)c2CC2CCCCC2)c2ccccc12 [Example 114/1] |  | 6.9 | 7.0
